≈ marks a conversion by molar mass, not a printed value. Calls of active or inactive are those of the source. The rule behind the calls is not given here.
Key:
[1] = tested on: Staphylococcus aureus; experiment: Antibacterial activity against Staphylococcus aureus clinical isolate assessed as inhibition of bacterial growth incubated for 24 hrs; assay type: functional
[2] = tested on: Staphylococcus aureus; experiment: Antibacterial activity against Staphylococcus aureus ATCC 6538 assessed as inhibition of bacterial growth incubated for 24 hrs; assay type: functional
[3] = tested on: Pseudomonas aeruginosa; experiment: Antibacterial activity against Pseudomonas aeruginosa ATCC 27853 assessed as inhibition of bacterial growth incubated for 24 hrs; assay type: functional
[4] = tested on: Enterococcus faecalis; experiment: Antibacterial activity against vancomycin-resistant Enterococcus faecalis clinical isolate p1-2007225053 assessed as inhibition of bacterial growth incubated for 24 hrs; assay type: functional
[5] = tested on: Streptococcus pyogenes; experiment: Potency index, ratio of ciprofloxacin MIC to test compound MIC for antibacterial activity against Streptococcus pyogenes ATCC 19615 assessed as inhibition of bacterial growth incubated for 24 hrs; assay type: functional
[6] = tested on: Calf thymus DNA; experiment: Binding affinity to calf thymus DNA assessed as DNA-compound complex formation by measuring hypochromism at 0 to 2.3 x 10^-8mol/L by UV absorption spectra based analysis; assay type: nucleic-acid assay; details: Bos taurus; dose 0-2.3 10^-8mol/L
[7] = tested on: Calf thymus DNA; experiment: Binding affinity to calf thymus DNA assessed as DNA-compound complex formation by measuring increase in absorption of DNA at 260 nm at 0 to 2.3 x 10^-8mol/L by UV absorption spectra based analysis; assay type: nucleic-acid assay; details: Bos taurus; dose 0-2.3 10^-8mol/L
[8] = tested on: Enterococcus faecalis; experiment: Antibacterial activity against Enterococcus faecalis clinical isolate assessed as inhibition of bacterial growth incubated for 24 hrs; assay type: functional
[9] = Cytotoxicity against human FHC assessed as inhibition of cell growth measured after 24 hrs by MTT assay; assay type: toxicity, cell-based; details: FHC cells
[10] = tested on: Calf thymus DNA; experiment: Competitive binding affinity to calf thymus DNA assessed as displacement of neutral red from DNA-neutral red complex by measuring reduction in absorbance at 540 nm at 0 to 2.1x10^-8 mol/L by UV absorption spectroscopy; assay type: nucleic-acid assay; details: Bos taurus; dose 0-2.1 10^-8mol/L
[11] = tested on: Staphylococcus aureus; experiment: Antibacterial activity against Staphylococcus aureus ATCC 25923 assessed as inhibition of bacterial growth incubated for 24 hrs; assay type: functional
[12] = tested on: Acinetobacter baumannii; experiment: Antibacterial activity against Acinetobacter baumannii clinical isolate assessed as inhibition of bacterial growth incubated for 24 hrs; assay type: functional
[13] = tested on: Streptococcus pneumoniae; experiment: Antibacterial activity against Streptococcus pneumoniae ATCC 6305 assessed as inhibition of bacterial growth incubated for 24 hrs; assay type: functional
[14] = tested on: Staphylococcus aureus; experiment: Resistance development in methicillin resistant Staphylococcus aureus assessed as increase in MIC measured after 20 days; assay type: functional, organism-based; details: time 20.0 day
[15] = tested on: Streptococcus pyogenes; experiment: Potency index, ratio of norfloxacin MIC to test compound MIC for antibacterial activity against Streptococcus pyogenes ATCC 19615 assessed as inhibition of bacterial growth incubated for 24 hrs; assay type: functional
[16] = Hemolytic activity in human Red blood cells at 32 ug/ml measured after 1.5 hrs by absorbance based assay relative to control; assay type: toxicity, cell-based, Erythrocyte; details: red blood cells (erythrocytes), at 32 µg/mL, read-out: Activity
[17] = tested on: Staphylococcus aureus; experiment: Antibacterial activity against Staphylococcus aureus CMCC(B)26003 assessed as inhibition of bacterial growth incubated for 24 hrs; assay type: functional
[18] = tested on: Streptococcus pyogenes; experiment: Antibacterial activity against Streptococcus pyogenes ATCC 19615 assessed as inhibition of bacterial growth incubated for 24 hrs; assay type: functional
[19] = tested on: Pseudomonas aeruginosa; experiment: Resistance development in Pseudomonas aeruginosa assessed as increase in MIC measured after 20 days; assay type: functional, organism-based; details: time 20.0 day
[20] = tested on: Enterococcus faecalis; experiment: Antibacterial activity against vancomycin-resistant Enterococcus faecalis clinical isolate p1-2007226001 assessed as inhibition of bacterial growth incubated for 24 hrs; assay type: functional
[21] = tested on: Escherichia coli; experiment: Antibacterial activity against Escherichia coli ATCC 25922 assessed as inhibition of bacterial growth incubated for 24 hrs; assay type: functional
[22] = tested on: HUVEC; experiment: Cytotoxicity against HUVEC cells assessed as reduction in cell viability at 0.78 to 25 ug/ml measured after 24 hrs by MTT assay; assay type: toxicity, cell-based; details: human, dose 0.78-25 µg/ml
[23] = tested on: Staphylococcus epidermidis; experiment: Antibacterial activity against Staphylococcus epidermidis ATCC 12228 assessed as inhibition of bacterial growth incubated for 24 hrs; assay type: functional
[24] = tested on: Staphylococcus aureus; experiment: Antibacterial activity against Staphylococcus aureus ATCC 12600 assessed as inhibition of bacterial growth incubated for 24 hrs; assay type: functional
[25] = tested on: Staphylococcus aureus; experiment: Antibacterial activity against Staphylococcus aureus ATCC 29213 assessed as inhibition of bacterial growth incubated for 24 hrs; assay type: functional
[26] = tested on: Escherichia coli; experiment: Antibacterial activity against Escherichia coli clinical isolate assessed as inhibition of bacterial growth incubated for 24 hrs; assay type: functional
[27] = tested on: Enterococcus faecium; experiment: Antibacterial activity against Enterococcus faecium ATCC 19434 assessed as inhibition of bacterial growth incubated for 24 hrs; assay type: functional
[28] = Cytotoxicity against HUVEC cells assessed as cell viability at 25 ug/ml measured after 24 hrs by MTT assay relative to control; assay type: toxicity, cell-based; details: human, at 25 µg/mL, read-out: Activity
[29] = Cytotoxicity against human normal Squamous epithelial cell (NOK) assessed as inhibition of cell growth measured after 24 hrs by MTT assay; assay type: toxicity, cell-based; details: normal squamous epithelial cells (NOK)
[30] = tested on: Pseudomonas aeruginosa; experiment: Antibacterial activity against Pseudomonas aeruginosa clinical isolate assessed as inhibition of bacterial growth incubated for 24 hrs; assay type: functional
[31] = tested on: Staphylococcus aureus; experiment: Antibacterial activity against methicillin resistant Staphylococcus aureus clinical isolate assessed as inhibition of bacterial growth incubated for 24 hrs; assay type: functional
[32] = tested on: Staphylococcus aureus; experiment: Antibacterial activity against methicillin-resistant Staphylococcus aureus ATCC 43300 assessed as inhibition of bacterial growth incubated for 24 hrs; assay type: functional
[33] = tested on: Staphylococcus aureus; experiment: Antibacterial activity against Staphylococcus aureus CMCC(B)26001 assessed as inhibition of bacterial growth incubated for 24 hrs; assay type: functional
[34] = Cytotoxicity against human FHC assessed as cell viability at 20 ug/ml measured after 24 hrs by MTT assay relative to control; assay type: toxicity, cell-based; details: FHC cells, at 20 µg/mL, read-out: Activity
[35] = tested on: L02; experiment: Cytotoxicity against human L02 cells assessed as reduction in cell viability at 0.78 to 25 ug/ml measured after 24 hrs by MTT assay; assay type: toxicity, cell-based; details: l02, 24 h, dose 0.78-25 µg/ml
[36] = tested on: Calf thymus DNA; experiment: Binding affinity to calf thymus DNA assessed as disruption of DNA confirmation by measuring blue shift at 0 to 2.3 x 10^-8mol/L by UV absorption spectra based analysis; assay type: nucleic-acid assay; details: Bos taurus; dose 0-2.3 10^-8mol/L
[37] = tested on: Erythrocyte; experiment: Hemolytic activity in human Red blood cells assessed as concentration required for 5% hemolysis measured after 1.5 hrs by absorbance based assay; assay type: toxicity, cell-based
[38] = tested on: Klebsiella pneumoniae; experiment: Antibacterial activity against Klebsiella pneumoniae clinical isolate assessed as inhibition of bacterial growth incubated for 24 hrs; assay type: functional

**Q.** For `N#CCc1cc2c(cc1F)c(=O)c(C(=O)O)cn2Cc1ccccc1Cl`, which MIC [1] is on record?
**A.** 256 µg/mL (≈ 690 µM)

**Q.** And the MIC [2]?
**A.** 4 µg/mL (≈ 10.8 µM)

**Q.** What about the MIC [3] of the same compound?
**A.** 0.5 µg/mL (≈ 1.35 µM)

**Q.** What about the MIC [4] of the same compound?
**A.** 128 µg/mL (≈ 345 µM)

**Q.** What about the Ratio [5] of the same compound?
**A.** 64

**Q.** What about the Activity [6] of the same compound?
**A.** Active

**Q.** And the Activity [7]?
**A.** Active

**Q.** And the MIC [8]?
**A.** 256 µg/mL (≈ 690 µM)

**Q.** And the IC50 at 24 h [9]?
**A.** 141 µg/mL (≈ 380 µM)

**Q.** And the Activity [10]?
**A.** Active

**Q.** What about the MIC [11] of the same compound?
**A.** 0.25 µg/mL (≈ 0.674 µM)

**Q.** What about the MIC [12] of the same compound?
**A.** 0.5 µg/mL (≈ 1.35 µM)

**Q.** And the MIC [13]?
**A.** 16 µg/mL (≈ 43.2 µM)

**Q.** What about the Activity [14] of the same compound?
**A.** inactive

**Q.** And the Ratio [15]?
**A.** 128

**Q.** What about the hemolysis at 1.5 h, 32 ug/ml [16] of the same compound?
**A.** 4%

**Q.** What about the MIC [17] of the same compound?
**A.** 0.125 µg/mL (≈ 0.337 µM)

**Q.** And the MIC [18]?
**A.** 0.25 µg/mL (≈ 0.674 µM)

**Q.** And the Activity [19]?
**A.** inactive

**Q.** What about the MIC [20] of the same compound?
**A.** 64 µg/mL (≈ 173 µM)

**Q.** And the MIC [21]?
**A.** 0.25 µg/mL (≈ 0.674 µM)

**Q.** And the Activity [22]?
**A.** Non-Toxic

**Q.** And the MIC [23]?
**A.** 0.25 µg/mL (≈ 0.674 µM)

**Q.** What about the MIC [24] of the same compound?
**A.** 128 µg/mL (≈ 345 µM)

**Q.** And the MIC [25]?
**A.** 0.25 µg/mL (≈ 0.674 µM)

**Q.** What about the MIC [26] of the same compound?
**A.** 0.25 µg/mL (≈ 0.674 µM)

**Q.** And the MIC [27]?
**A.** 4 µg/mL (≈ 10.8 µM)

**Q.** And the viability at 24 h, 25 ug/ml [28]?
**A.** > 90%

**Q.** What about the IC50 at 24 h [29] of the same compound?
**A.** 1.38 µg/mL (≈ 3.72 µM)

**Q.** And the MIC [30]?
**A.** 0.25 µg/mL (≈ 0.674 µM)

**Q.** And the MIC [31]?
**A.** 256 µg/mL (≈ 690 µM)

**Q.** What about the MIC [32] of the same compound?
**A.** 4 µg/mL (≈ 10.8 µM)

**Q.** And the MIC [33]?
**A.** 0.25 µg/mL (≈ 0.674 µM)

**Q.** And the viability at 24 h, 20 ug/ml [34]?
**A.** > 80%

**Q.** And the Activity [35]?
**A.** Non-Toxic

**Q.** And the Activity [36]?
**A.** Active

**Q.** What about the HC5 [37] of the same compound?
**A.** 64 µg/mL

**Q.** What about the MIC [38] of the same compound?
**A.** 2 µg/mL (≈ 5.39 µM)

Source: ChEMBL document CHEMBL5506059, “Cyanomethylquinolones as a New Class of Potential Multitargeting Broad-Spectrum Antibacterial Agents” (J Med Chem, 2024)
